A short description of series [1]: Porcine pharmacokinetic study of sumatriptan delivered by the microneedle fluid delivery apparatus (FIG. 50). The format is in vivo, Yorkshire pigs. Particulars: 20 mg via fluid delivery apparatus (microneedles), pig, blood serum; compared with nasal, oral and Zecuity administration. The procedure: In reference to FIG. 50, shown is the time versus concentration profile of sumatriptan as administered according to the methods and devices disclosed herein. An ideal profile (identified as “Target PK Profile”) is calculated based on the therapeutic efficiency of the medicament.
Thirty five 80 kg castrated or female Yorkshire pigs were placed under anesthesia and a catheter was inserted into the right or left jugular vein. After the catheter was placed, the pigs were kept under anesthesia and placed on their backs. The ventral region was shaved and covered with a depilatory cream (Nair Sensitive®) for 8 minutes. The cream was removed and the area washed with alcohol. The fluid delivery apparatus was placed against the skin with an adhesive and the microneedles (100 total) were inserted at a post traveling velocity of 6 m/s. A 20 mg dose of sumatriptan from the fluid deliver apparatus was delivered while the pig was under anesthesia. 3 mL blood samples were withdrawn at each time point and spun down to recover the blood serum.

For series [2] the following is noted: cited from earlier work.
Where [3] appears, read: nasal administration, compared with the actual profile of the fluid delivery apparatus (FIG. 49 vs FIG. 50).
The mark [4] stands for this setting: subcutaneous administration, compared with the other routes of administration.

The structures appear in SMILES notation. Like-named read-outs stand apart in the source and are kept apart here.

Take `CNS(=O)(=O)Cc1ccc2[nH]cc(CCN(C)C)c2c1.O=C(O)CCC(=O)O` [sumatriptan, 1-[3-[2-(dimethylamino)ethyl]-1H-indol-5-yl]-N-methylmethanesulfonamide butanedioic acid]: the results for the AUC result in series [1] and in series [2] (setting [3]) were “significantly improved” and “significantly lower”, respectively. Also, the Css entry is “significantly improved” in series [1]; “significantly lower” in series [2] (setting [3]); “significantly lower” in series [2] (subcutaneous administration, as time progresses). The Tmax result in series [1] is on record as “significantly improved”; in series [2] (oral administration, compared with the actual profile of the fluid delivery apparatus), “much slower”; in series [2] (setting [4]) it was “much faster”. Also, in series [2] (setting [4]), the Cmax entry is recorded as “higher”.
